Earlier results in US9534000B2, “Cytotoxic benzodiazepine derivatives and methods of preparation” (ImmunoGen, Inc., priority 2011, dated 2017).

Settings: Phase I clinical evaluation

C=C1C[C@H]2C=Nc3cc(OCCCOc4cc5c(cc4OC)C(=O)N4CC(=C)C[C@H]4C=N5)c(OC)cc3C(=O)N2C1 [SJG-136]
DNA damage in circulating lymphocytes: noted at all doses
